According to PubChem BioAssay (NCI):
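A five-concentration, 48-hour dose response in 96-well plates underlies each endpoint, interpolated linearly between surrounding concentrations. At the GI50, growth is halved. TGI: total growth inhibition.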

Experiments:
Assay in all cases: DTP human tumour cell line panel, 48 h
[1] = system: CAKI-1 renal
[2] = system: DU-145 prostate
[3] = system: HOP-92 NSCLC
[4] = system: OVCAR-3 ovarian
[5] = system: RPMI-8226 leukemia
[6] = system: SF-268 CNS
[7] = system: SF-295 CNS
[8] = system: SK-MEL-28 melanoma
[9] = system: SNB-19 CNS
[10] = system: UO-31 renal
[11] = system: T-47D breast

Row | SMILES | TGI [1] [µM] | TGI [2] [µM] | TGI [3] [µM] | TGI [4] [µM] | TGI [5] [µM] | TGI [6] [µM] | TGI [7] [µM] | TGI [8] [µM] | TGI [9] [µM] | TGI [10] [µM] | TGI [11] [µM] | GI50 [2] [µM] | GI50 [3] [µM] | GI50 [5] [µM] | GI50 [6] [µM] | GI50 [7] [µM] | GI50 [8] [µM] | GI50 [9] [µM] | GI50 [11] [µM] | GI50 [10] [µM]
1 | O=c1oc2ccc3ccccc3c2cc1-c1cn2c(n1)sc1ccccc12 | > 100 | > 100 | > 100 | > 100 | > 100 | > 100 | > 100 | > 100 | > 100 | > 100 |  |  |  |  |  |  |  |  |  | 
2 | CC(CNC(=O)c1ccccc1)(CNC(=O)c1ccccc1)[N+](=O)[O-] | > 100 | > 100 | > 100 |  | > 100 | > 100 | > 100 |  | 73.3 | > 100 | > 100 |  |  |  |  |  |  |  |  | 
3 | CC(=O)OCC1OC(OC(C)=O)C(Nc2ncc(-c3ccc(C)cc3)s2)C(OC(C)=O)C1OC(C)=O (configuration not stated) | 31.2 | > 100 |  | 35.1 | 64.3 | 36.2 | 76.3 | 31.2 | 52.9 | 27.9 | 48.8 |  |  |  |  |  |  |  |  | 
4 | O=[N+]([O-])c1ccc(CN=C2NNS(=O)(=O)c3ccccc32)cc1 | > 100 |  | > 100 | > 100 | > 100 | > 100 | > 100 |  | > 100 | > 100 |  |  |  |  |  |  |  |  |  | 
5 | CN(C)CCN(C)C(=O)C1CCCN1C(=O)OCc1ccccc1 (configuration not stated) |  |  | > 100 | > 100 | > 100 | > 100 | > 100 | > 100 | > 100 | > 100 |  |  |  |  |  |  |  |  |  | 
6 | O=C1CCSc2nc(-c3ccc4c(c3)OCO4)nn21 | > 10 | > 10 | > 10 | > 10 | > 10 | > 10 | > 10 | > 10 | > 10 |  | > 10 |  |  |  |  |  |  |  |  | 
7 | CC(=O)Oc1ccc(Nn2c3ccccc3c3ccccc32)c(C)c1 |  |  | 64 | > 100 | 58.5 | > 100 | 73.7 | > 100 | > 100 | > 100 |  |  |  |  |  |  |  |  |  | 
8 | COC(=O)CC(CNC(=O)OCc1ccccc1)OCc1ccc(OC)cc1 (configuration not stated) | > 100 | > 100 | > 100 | > 100 | > 100 |  | > 100 | > 100 | > 100 | > 100 |  |  |  |  |  |  |  |  |  | 
9 | c1ccc2nn(C3CCCO3)nc2c1 (configuration not stated) | > 100 | > 100 |  | > 100 |  | > 100 | > 100 |  |  |  | > 100 |  |  |  |  |  |  |  |  | 
10 | c1ccc2cc(CNCCCCNCCCNCc3ccc4ccccc4c3)ccc2c1 | 3.31 | 2.53 | 3.05 | 3.52 | 0.712 | 2.83 | 2.96 | 3.34 | 2.8 | 2.83 |  |  |  |  |  |  |  |  |  | 
11 | CCOC(=O)C1(C#N)C(C#N)(C#N)C1(C#N)C#N | > 100 | > 100 | > 100 |  | > 100 | > 100 | > 100 | > 100 | > 100 | > 100 | > 100 |  |  |  |  |  |  |  |  | 
12 | COC(=O)[C@H](COC(C)(C)C)NC(=O)N[C@H](C)c1ccccc1 | > 100 | > 100 | > 100 | > 100 | > 100 | > 100 | > 100 | > 100 | > 100 | > 100 |  |  |  |  |  |  |  |  |  | 
13 | O=C(CCc1ccc(O)c(O)c1)NCCc1cc(O)c(O)c(O)c1 |  | > 100 | > 100 | 34.5 | > 100 | > 100 | 33.3 | > 100 | > 100 | > 100 | > 100 |  |  |  |  |  |  |  |  | 
14 | Cc1cccc2c1c(=O)c1c(O)cc3c(c1n2C)C=CC(C)(C)O3 | > 100 | > 100 | > 100 | > 100 | > 100 | > 100 | > 100 | > 100 | > 100 |  |  |  |  |  |  |  |  |  |  | 
15 | CCN(CC)C(=S)N/N=C/c1cc(OC)ccc1O |  | > 100 |  | > 100 |  | 11.3 | > 100 | > 100 | > 100 | 6.12 | > 100 |  |  |  |  |  |  |  |  | 
16 | CCOC(=O)C1=CNC(C(=O)OCC)C1c1cccn1-c1ccccc1 (configuration not stated) | > 100 | > 100 | 56.8 | > 100 |  | > 100 | 74.5 | 76.3 |  | > 100 | > 100 |  |  |  |  |  |  |  |  | 
17 | CC(Cc1cccc2c1Nc1ccccc1S2)N(C)CCO (configuration not stated) | > 100 | > 100 | > 100 | > 100 |  | > 100 | > 100 | > 100 | > 100 | > 100 | > 100 |  |  |  |  |  |  |  |  | 
18 | CC1CCC2CC1NC(=O)CCOCCC(=O)NC2(C)C (configuration not stated) |  | > 100 | > 100 | > 100 |  | > 100 | > 100 | > 100 | > 100 | > 100 | > 100 |  |  |  |  |  |  |  |  | 

Row | SMILES | TGI [1] [µM] | TGI [2] [µM] | TGI [3] [µM] | TGI [4] [µM] | TGI [5] [µM] | TGI [6] [µM] | TGI [7] [µM] | TGI [8] [µM] | TGI [9] [µM] | TGI [10] [µM] | TGI [11] [µM] | GI50 [2] [µM] | GI50 [3] [µM] | GI50 [5] [µM] | GI50 [6] [µM] | GI50 [7] [µM] | GI50 [8] [µM] | GI50 [9] [µM] | GI50 [11] [µM] | GI50 [10] [µM]
19 | CN1c2ccccc2C(=O)NC12CCNCC2 |  | > 100 | > 100 |  | > 100 | > 100 | > 100 | > 100 | > 100 | > 100 | > 100 |  |  |  |  |  |  |  |  | 
20 | CCOC(=O)Nc1n[nH]nc1Cl | > 100 | > 100 |  | > 100 | > 100 | > 100 |  | > 100 |  | > 100 | > 100 |  |  |  |  |  |  |  |  | 
21 | COc1cc(/C=C/C(=O)c2ccc(F)cc2)ccc1OCCCCCOc1cc2c(cc1OC)C(=O)N1CCCC1C=N2 (configuration not stated) |  | 0.0579 | 0.575 |  | 0.0383 | 0.0613 | < 0.0108 | 0.473 | 3.35 | 3.64 | 1.19 | 0.0249 | 0.158 | 0.0101 | 0.0177 | < 0.01 | 0.194 | < 0.0223 | 0.0231 | 0.0473
22 | CCCCCCCc1cscc1-c1cscc1Br | 91.2 | > 100 |  |  | 47 | > 100 | 79.8 | > 100 | > 100 | > 100 | 88.3 |  |  |  |  |  |  |  |  | 
23 | CC(=O)N=c1ccc2nc(N)nn(O)c-2c1 | > 100 | > 100 |  | > 100 | > 100 | > 100 | > 100 | > 100 | > 100 | > 100 | > 100 |  |  |  |  |  |  |  |  | 
24 | O=C1C=CC(=O)c2cc(Sc3ccccc3)c(=O)c(Sc3ccccc3)cc21 | > 100 |  | 50.5 | > 100 | > 100 | > 100 | > 100 | > 100 | > 100 | > 100 |  |  |  |  |  |  |  |  |  | 
25 | Cc1c2ccccc2c(C2C3C(=O)N(c4cccc5ccccc45)C(=O)C3ON2Cc2ccc(CC(N)=O)cc2)c2ccccc12 (configuration not stated) | > 50 | > 50 | > 50 | > 50 |  | > 50 | > 50 | > 50 | > 50 | > 50 | > 50 |  |  |  |  |  |  |  |  | 
26 | S=C(Nc1ccc2c(c1)oc1ccccc12)c1cccs1 | > 100 | > 100 | > 100 | > 100 |  | > 100 | > 100 | > 100 | > 100 | > 100 | > 100 |  |  |  |  |  |  |  |  | 
27 | C=CC(=O)NCNC(=O)C=C | > 100 |  | > 100 | > 100 | > 100 | > 100 | > 100 | > 100 | > 100 | > 100 |  |  |  |  |  |  |  |  |  | 
28 | c1ccc(-c2cc(-c3ccncc3)cc(-c3ccncc3)n2)cc1 | > 100 | > 100 |  | > 100 | > 100 | > 100 | > 100 | > 100 | > 100 | > 100 | > 100 |  |  |  |  |  |  |  |  | 
29 | COc1ccc(NS(=O)c2c(C)cc(C)cc2C)cc1 (configuration not stated) |  | > 100 |  | > 100 | > 100 | > 100 | > 100 | > 100 | > 100 | 61.1 | > 100 |  |  |  |  |  |  |  |  | 
30 | O=C1CCCC2=C1CC1=C(CCCC1=O)N2c1ccc([N+](=O)[O-])cc1 | > 100 |  |  | > 100 | > 100 | > 100 |  | > 100 | > 100 | > 100 |  |  |  |  |  |  |  |  |  | 
31 | C#C[C@]1(O)[C@@H](CO)O[C@@H](n2ccc(N)nc2=O)[C@@H]1O | 0.122 | 6.22 | 12.7 | > 20.8 | 0.192 | 6.04 | 3.07 | 4.27 | > 24 | 0.395 |  |  |  |  |  |  |  |  |  | 
32 | Oc1c(Cl)c(Cl)c(O)c(CCNc2nccs2)c1Cl | 29.3 | 19.8 | > 100 | 33.3 |  | 36.1 | 41.5 | 67.9 | 44.1 | 32.9 | 34.8 |  |  |  |  |  |  |  |  | 
33 | CCc1ccc(Nc2cc(=O)n(C)c(SCc3ccccc3)n2)cc1 | > 100 | > 100 | > 100 | > 100 |  | > 100 | > 100 |  | > 100 | > 100 | > 100 |  |  |  |  |  |  |  |  | 
34 | Cc1cc(C)c(NC(=O)/C=C/c2ccccc2)c(C)c1 |  |  | > 100 | > 100 | > 100 | > 100 | > 100 | > 100 | > 100 | > 100 |  |  |  |  |  |  |  |  |  | 
35 | COC(=O)[C@@H](OC(C)=O)[C@@H](OC(C)=O)c1nnc2ccc(Cl)nn12 | > 100 | > 100 |  | > 100 | > 100 | > 100 | > 100 | > 100 | > 100 |  | > 100 |  |  |  |  |  |  |  |  | 
